In general, IC50 refers to the concentration that gives 50% inhibition.

For the experiment, the target named is T1, Sentrin-specific protease 1 (Homo sapiens, UniProt Q9P0U3).
T1 sequence (Q9P0U3 whole entry): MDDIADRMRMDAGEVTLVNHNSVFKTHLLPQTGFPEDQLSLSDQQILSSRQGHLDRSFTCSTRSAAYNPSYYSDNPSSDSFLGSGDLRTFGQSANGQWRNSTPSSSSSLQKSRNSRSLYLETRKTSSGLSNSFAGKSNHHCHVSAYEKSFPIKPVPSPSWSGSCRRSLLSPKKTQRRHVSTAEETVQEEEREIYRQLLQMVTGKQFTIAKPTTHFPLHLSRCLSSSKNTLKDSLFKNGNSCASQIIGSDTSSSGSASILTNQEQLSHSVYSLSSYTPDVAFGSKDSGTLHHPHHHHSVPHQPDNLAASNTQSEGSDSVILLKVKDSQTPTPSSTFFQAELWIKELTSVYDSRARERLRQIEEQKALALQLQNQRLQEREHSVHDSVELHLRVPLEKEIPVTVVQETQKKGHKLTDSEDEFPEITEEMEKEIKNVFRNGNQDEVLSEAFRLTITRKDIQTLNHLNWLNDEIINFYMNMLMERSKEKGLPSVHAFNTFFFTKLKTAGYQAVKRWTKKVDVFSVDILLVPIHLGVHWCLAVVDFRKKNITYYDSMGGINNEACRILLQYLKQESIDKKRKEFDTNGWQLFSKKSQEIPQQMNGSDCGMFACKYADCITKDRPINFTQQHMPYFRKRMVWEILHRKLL

`CCOC1=CC(=Cc2sc(=O)[nH]c2N)C=CC1=O` had a concentration for half-maximal inhibition (IC50) of 10.9 µM.
In the case of `O=[N+]([O-])c1ccc(C/N=N/c2ccccc2)cc1`, inhibition was half-maximal at 21.5 µM (IC50). This IC50 is about 2-fold higher than that of the compound before.
For `COc1ccc(OC)c(CCNC(=O)c2ccc3c(=O)[nH]c4c(C(=O)NC(C)C)sc(=S)n4c3c2)c1` the value was above 80 µM.
For `COc1ccc(-n2c(O)c3c(c2O)C(C(=O)c2ccc(Cl)cc2)N2CCCC32)cc1` (stereo unspecified) the value was 5.56 µM; for `O=C1CC(=Nc2ccc(Cl)cc2)C(=O)N1c1ccc(Cl)cc1` [1-(4-chlorophenyl)-3-[(4-chlorophenyl)amino]pyrrole-2,5-dione], 21 µM; for `CC1(C)CC(=O)C2Sc3ccccc3N=C2C1` (stereo unspecified) [2,2-Dimethyl-2,3-dihydro-1H,10H-phenothiazin-4-one], 29 µM.
To `O=C(Cc1cccc2ccccc12)NC(NC(=S)Nc1ccccc1Cl)C(Cl)(Cl)Cl` (stereo unspecified) [2-(1-naphthyl)-N-[2,2,2-trichloro-1-({[(2-chlorophenyl)amino]carbonothioyl}amino)ethyl]acetamide] belongs 8.36 µM; to `N#CC1C(=N)Oc2cc(Nc3ccccc3)ccc2C1c1ccncc1` (stereo unspecified) [2-amino-7-anilino-4-pyridin-4-yl-4H-1-benzopyran-3-carbonitrile], 41.9 µM; to `CCN1C(=O)c2cccc3c(NC(=O)c4cccc(-n5c(O)ccc5O)c4)ccc1c23` [3-(2,5-dioxopyrrolidin-1-yl)-N-(1-ethyl-2-oxobenzo[cd]indol-6-yl)benzamide], 17.9 µM.
As for `COc1ccc(C=Nn2c(O)csc2=S)cc1Br` [3-[(E)-(3-bromo-4-methoxyphenyl)methylideneamino]-2-sulfanylidene-4-thiazolidinone], the half-inhibitory concentration (IC50) was 19.3 µM.
The compound `O=C1CC(=O)c2cccc3cccc1c23` [3-hydroxy-1H-phenalen-1-one] came in with an IC50 of 13.1 µM.
To `Oc1c2c(c(O)n1-c1ccccn1)C(c1ccccc1)C=CC2c1ccccc1` (stereo unspecified) [4,7-diphenyl-2-pyridin-2-yl-3a,4,7,7a-tetrahydroisoindole-1,3-dione] belongs 10.8 µM; to `COc1nccnc1NS(=O)(=O)c1ccc(NC(=S)NC(=O)c2ccc(F)cc2)cc1` [4-[3-(4-Fluoro-benzoyl)-thioureido]-N-(3-methoxy-pyrazin-2-yl)-benzenesulfonamide], 11.6 µM; to `O=C(O)c1ccc(N=NCc2cccc3nccnc23)cc1` [4-[(2E)-2-(5-quinoxalinylmethylidene)hydrazinyl]benzoic acid], 15.1 µM.
For `O=C1NC(=S)N/C1=C/c1cccc([N+](=O)[O-])c1O` [(5E)-5-[(2-hydroxy-3-nitrophenyl)methylidene]-2-sulfanylideneimidazolidin-4-one] the value was above 80 µM; for `CCOC(=O)/C(C#N)=C/C=C1\C=Cc2ccccc2N1CC` [(E,4E)-2-cyano-4-(1-ethyl-2-quinolinylidene)-2-butenoic acid ethyl ester], above 80 µM; for `CC(=O)Oc1ccc(-n2c(O)c3c(c2O)C(C(=O)c2ccc(Cl)cc2)N2CCCC32)cc1` (stereo unspecified) [Acetic acid 4-[4-(4-chloro-benzoyl)-1,3-dioxo-octahydro-pyrrolo[3,4-a]pyrrolizin-2-yl]-phenyl ester], 7.5 µM.
For `O=C1CCCC2=Nc3cc(Cl)ccc3SC12` (stereo unspecified) [MLS000333002] the value was 13.7 µM.
`CN(C)c1ccc(C=NNC(=O)C(=O)CC2=NC3(CCCC3)Cc3ccccc32)cc1` [MLS000589038]: the IC50 worked out at 10.1 µM.
`COc1ccc(-n2c(O)c3c(c2O)C(C(=O)c2ccccc2)N2CCCC32)cc1` (stereo unspecified) [MLS000762485] came in with an IC50 of 31 µM.
To `CCOc1cc(C=c2[nH]c3n(c2=O)CCCCC=3)ccc1O` [MLS000774439] belongs 9.57 µM.
For `CC1=C(C#N)C(=O)NC(=O)C1=NNc1ccc(Br)cc1C(=O)O` [MLS001213177] the value was 18.1 µM; for `O=NC1c2cc([N+](=O)[O-])ccc2-c2cc(Cl)c(NC(=O)C(F)(F)F)cc21` (stereo unspecified) [MLS002707326], 12.5 µM.
As to `Nc1ccc2c(c1)C(N=O)c1cc([N+](=O)[O-])ccc1-2` (stereo unspecified) [N-(2-azanyl-7-nitro-fluoren-9-ylidene)hydroxylamine], the 50% inhibitory concentration (IC50) turned out to be 18.1 µM.
To `Nc1cc([N+](=O)[O-])ccc1Nc1ccccc1` [SMR000271721] belongs above 80 µM; to `CCN(CC)CCNc1cccc2sc3ccccc3c(=O)c12` [SMR001821489], above 80 µM.
